Columns and labels:
Assay in all cases: radiometric filter-binding kinase assay
[1] = molecular target: TEK (human) (UniProt Q02763)
[2] = molecular target: MARK3 (human) (UniProt P27448)
[3] = molecular target: EIF2AK3 (human) (UniProt Q9NZJ5)
[4] = molecular target: CHEK2 (human) (UniProt O96017)
[5] = molecular target: IRAK1 (human) (UniProt P51617)
[6] = molecular target: CDK9 CCNT1 (human) (UniProt P50750+O60563)
[7] = molecular target: STK16 (human) (UniProt O75716)
[8] = molecular target: CSNK1G2 (human) (UniProt P78368)
[9] = molecular target: STK24 (human) (UniProt Q9Y6E0)
[10] = molecular target: SIK2 (human) (UniProt Q9H0K1)
[11] = molecular target: TSSK1B (human) (UniProt Q9BXA7)
[12] = molecular target: TESK1 (human) (UniProt Q15569)
TESK1 (human), sequence (Q15569 whole entry, looked up): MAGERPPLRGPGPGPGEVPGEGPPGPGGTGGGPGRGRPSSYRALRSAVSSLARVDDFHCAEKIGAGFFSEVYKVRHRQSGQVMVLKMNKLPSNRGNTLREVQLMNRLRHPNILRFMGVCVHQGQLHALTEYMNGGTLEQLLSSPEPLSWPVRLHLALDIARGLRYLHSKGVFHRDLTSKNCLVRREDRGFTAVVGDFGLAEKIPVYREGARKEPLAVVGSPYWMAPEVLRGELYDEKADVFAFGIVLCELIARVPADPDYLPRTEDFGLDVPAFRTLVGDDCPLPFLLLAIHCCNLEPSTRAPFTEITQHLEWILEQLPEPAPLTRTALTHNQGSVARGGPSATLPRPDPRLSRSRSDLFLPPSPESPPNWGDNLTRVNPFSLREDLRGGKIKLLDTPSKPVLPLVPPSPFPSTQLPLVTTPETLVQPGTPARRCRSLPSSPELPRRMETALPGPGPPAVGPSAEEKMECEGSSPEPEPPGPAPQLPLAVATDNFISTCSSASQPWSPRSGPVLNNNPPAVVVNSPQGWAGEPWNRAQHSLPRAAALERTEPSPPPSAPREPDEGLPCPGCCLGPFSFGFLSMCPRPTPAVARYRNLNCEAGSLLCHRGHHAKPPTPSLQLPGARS

[13] = molecular target: ULK1 (human) (UniProt O75385)
ULK1 (human), sequence (O75385 whole entry, looked up): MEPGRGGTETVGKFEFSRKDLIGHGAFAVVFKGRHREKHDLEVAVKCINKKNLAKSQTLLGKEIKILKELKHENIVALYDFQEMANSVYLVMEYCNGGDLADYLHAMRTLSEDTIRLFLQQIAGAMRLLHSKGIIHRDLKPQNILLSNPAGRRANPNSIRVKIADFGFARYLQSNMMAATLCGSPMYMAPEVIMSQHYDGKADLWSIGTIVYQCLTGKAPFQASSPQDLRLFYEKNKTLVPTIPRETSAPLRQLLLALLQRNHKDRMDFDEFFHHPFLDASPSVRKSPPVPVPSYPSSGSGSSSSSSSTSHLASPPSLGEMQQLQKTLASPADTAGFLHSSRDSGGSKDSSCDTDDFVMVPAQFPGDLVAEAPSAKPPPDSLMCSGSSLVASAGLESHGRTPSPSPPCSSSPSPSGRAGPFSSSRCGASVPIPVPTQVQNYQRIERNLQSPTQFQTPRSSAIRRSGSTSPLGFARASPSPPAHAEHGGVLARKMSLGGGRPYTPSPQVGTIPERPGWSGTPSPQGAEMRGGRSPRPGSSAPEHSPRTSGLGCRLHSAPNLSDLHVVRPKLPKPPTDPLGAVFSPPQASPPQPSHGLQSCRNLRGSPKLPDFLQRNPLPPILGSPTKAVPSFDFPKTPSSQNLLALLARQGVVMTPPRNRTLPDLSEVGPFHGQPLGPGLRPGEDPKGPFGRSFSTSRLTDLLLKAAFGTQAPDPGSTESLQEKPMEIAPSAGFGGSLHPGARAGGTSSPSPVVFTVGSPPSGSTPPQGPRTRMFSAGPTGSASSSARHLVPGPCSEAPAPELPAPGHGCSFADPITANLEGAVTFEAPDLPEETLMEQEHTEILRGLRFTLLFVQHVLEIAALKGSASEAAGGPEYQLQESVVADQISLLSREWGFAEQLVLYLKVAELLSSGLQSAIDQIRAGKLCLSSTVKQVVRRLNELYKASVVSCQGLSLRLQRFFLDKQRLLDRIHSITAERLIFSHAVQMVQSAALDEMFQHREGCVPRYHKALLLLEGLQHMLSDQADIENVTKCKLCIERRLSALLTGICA

[14] = system: OXSR1 (human), O95747 [T185E]
[15] = molecular target: SIK3 (human) (UniProt Q9Y2K2)
SIK3 (human), sequence (Q9Y2K2 whole entry, looked up): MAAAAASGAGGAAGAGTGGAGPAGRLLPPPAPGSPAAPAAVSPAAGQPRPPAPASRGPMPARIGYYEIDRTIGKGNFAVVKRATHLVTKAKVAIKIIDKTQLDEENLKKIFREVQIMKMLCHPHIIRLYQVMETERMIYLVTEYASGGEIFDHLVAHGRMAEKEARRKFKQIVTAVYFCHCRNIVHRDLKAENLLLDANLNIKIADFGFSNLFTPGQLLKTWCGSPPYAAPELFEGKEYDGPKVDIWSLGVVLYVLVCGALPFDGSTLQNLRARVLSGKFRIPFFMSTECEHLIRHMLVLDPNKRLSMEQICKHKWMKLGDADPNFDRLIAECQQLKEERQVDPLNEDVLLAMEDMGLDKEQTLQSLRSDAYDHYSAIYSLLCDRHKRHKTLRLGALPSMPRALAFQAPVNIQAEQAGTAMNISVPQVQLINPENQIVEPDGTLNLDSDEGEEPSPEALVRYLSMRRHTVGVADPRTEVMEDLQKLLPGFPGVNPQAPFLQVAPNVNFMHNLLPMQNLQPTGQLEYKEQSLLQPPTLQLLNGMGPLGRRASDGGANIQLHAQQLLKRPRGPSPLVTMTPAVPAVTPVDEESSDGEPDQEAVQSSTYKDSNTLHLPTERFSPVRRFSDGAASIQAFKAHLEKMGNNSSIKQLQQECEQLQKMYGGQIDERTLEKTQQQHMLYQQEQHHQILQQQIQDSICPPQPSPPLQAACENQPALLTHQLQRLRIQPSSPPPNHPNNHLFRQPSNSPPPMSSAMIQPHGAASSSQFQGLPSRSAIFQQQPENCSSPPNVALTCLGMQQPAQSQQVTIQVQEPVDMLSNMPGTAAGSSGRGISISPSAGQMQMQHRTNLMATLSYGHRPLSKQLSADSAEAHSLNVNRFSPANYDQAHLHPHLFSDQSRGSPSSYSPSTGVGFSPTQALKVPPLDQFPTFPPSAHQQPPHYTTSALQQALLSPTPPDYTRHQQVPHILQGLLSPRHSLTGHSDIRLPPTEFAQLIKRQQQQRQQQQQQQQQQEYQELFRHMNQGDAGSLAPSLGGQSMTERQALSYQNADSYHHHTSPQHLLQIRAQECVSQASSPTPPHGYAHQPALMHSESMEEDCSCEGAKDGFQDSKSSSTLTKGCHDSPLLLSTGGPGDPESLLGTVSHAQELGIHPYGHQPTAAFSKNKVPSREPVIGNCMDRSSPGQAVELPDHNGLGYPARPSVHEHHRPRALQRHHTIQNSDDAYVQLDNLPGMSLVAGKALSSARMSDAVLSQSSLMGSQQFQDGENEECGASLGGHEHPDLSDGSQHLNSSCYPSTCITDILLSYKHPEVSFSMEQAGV

[16] = molecular target: ULK2 (human) (UniProt Q8IYT8)
ULK2 (human), sequence (Q8IYT8 whole entry, looked up): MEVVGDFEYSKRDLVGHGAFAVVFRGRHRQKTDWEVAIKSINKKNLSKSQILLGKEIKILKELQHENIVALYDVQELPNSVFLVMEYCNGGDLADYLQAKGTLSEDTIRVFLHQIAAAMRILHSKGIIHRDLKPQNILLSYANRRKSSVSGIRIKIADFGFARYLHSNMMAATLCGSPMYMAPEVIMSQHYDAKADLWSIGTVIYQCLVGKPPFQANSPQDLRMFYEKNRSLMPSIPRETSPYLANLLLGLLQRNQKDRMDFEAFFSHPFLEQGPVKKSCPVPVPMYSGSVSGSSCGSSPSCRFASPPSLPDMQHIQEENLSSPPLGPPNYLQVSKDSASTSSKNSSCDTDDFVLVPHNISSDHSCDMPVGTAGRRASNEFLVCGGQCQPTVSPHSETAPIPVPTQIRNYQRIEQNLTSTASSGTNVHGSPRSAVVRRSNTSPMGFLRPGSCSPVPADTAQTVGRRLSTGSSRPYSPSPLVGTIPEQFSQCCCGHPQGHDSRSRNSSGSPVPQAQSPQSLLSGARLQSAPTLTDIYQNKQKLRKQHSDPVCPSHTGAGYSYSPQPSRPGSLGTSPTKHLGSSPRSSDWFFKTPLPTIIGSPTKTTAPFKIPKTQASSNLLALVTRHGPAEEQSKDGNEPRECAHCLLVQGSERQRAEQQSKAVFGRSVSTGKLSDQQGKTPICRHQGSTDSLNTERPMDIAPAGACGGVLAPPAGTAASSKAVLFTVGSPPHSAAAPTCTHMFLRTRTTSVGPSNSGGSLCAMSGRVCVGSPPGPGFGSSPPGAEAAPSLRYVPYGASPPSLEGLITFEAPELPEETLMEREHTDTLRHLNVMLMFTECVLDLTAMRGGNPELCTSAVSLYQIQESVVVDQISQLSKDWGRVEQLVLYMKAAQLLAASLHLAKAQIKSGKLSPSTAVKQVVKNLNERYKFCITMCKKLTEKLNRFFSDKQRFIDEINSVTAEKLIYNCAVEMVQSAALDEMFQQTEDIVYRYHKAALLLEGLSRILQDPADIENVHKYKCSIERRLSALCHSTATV

[17] = molecular target: STK33 (human) (UniProt Q9BYT3)
[18] = molecular target: ABL1 (human) (UniProt P00519)
[19] = molecular target: DDR2 (human) (UniProt Q16832)
[20] = molecular target: TTBK1 (human) (UniProt Q5TCY1)
[21] = molecular target: PRKCG (human) (UniProt P05129)
[22] = molecular target: PTK6 (human) (UniProt Q13882)
[23] = molecular target: TLK1 (human) (UniProt Q9UKI8)
[24] = molecular target: ZAP70 (human) (UniProt P43403)
[25] = molecular target: PDGFRA (human) (UniProt P16234); details: compound 5.0 µM
[26] = molecular target: MAP4K5 (human) (UniProt Q9Y4K4)
[27] = molecular target: MAP4K3 (human) (UniProt Q8IVH8)
[28] = molecular target: WNK1 (human) (UniProt Q9H4A3)
[29] = molecular target: PRKAA1 PRKAB2 PRKAG1 (human) (UniProt O43741+Q13131+P54619)
[30] = molecular target: TTBK2 (human) (UniProt Q6IQ55)

MARK3 (human), sequence (P27448 whole entry, looked up): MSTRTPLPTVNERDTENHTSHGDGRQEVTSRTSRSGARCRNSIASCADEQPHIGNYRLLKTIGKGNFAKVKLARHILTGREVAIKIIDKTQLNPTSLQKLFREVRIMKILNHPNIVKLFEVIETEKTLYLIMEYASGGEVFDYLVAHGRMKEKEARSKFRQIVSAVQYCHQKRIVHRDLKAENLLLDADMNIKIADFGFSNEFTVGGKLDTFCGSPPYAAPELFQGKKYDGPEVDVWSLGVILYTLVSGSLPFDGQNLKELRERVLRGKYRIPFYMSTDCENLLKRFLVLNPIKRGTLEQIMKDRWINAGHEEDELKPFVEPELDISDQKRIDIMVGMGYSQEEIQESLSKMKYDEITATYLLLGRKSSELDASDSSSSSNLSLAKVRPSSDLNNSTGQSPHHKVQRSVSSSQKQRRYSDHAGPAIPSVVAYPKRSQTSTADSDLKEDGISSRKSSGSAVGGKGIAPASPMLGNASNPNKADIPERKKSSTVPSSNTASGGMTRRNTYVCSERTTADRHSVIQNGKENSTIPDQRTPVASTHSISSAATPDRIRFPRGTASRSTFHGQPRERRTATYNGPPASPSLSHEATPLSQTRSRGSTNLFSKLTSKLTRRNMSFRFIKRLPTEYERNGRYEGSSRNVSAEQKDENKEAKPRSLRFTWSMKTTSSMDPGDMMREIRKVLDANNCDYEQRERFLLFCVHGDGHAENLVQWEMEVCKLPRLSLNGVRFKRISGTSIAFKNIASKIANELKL
STK16 (human), sequence (O75716 whole entry, looked up): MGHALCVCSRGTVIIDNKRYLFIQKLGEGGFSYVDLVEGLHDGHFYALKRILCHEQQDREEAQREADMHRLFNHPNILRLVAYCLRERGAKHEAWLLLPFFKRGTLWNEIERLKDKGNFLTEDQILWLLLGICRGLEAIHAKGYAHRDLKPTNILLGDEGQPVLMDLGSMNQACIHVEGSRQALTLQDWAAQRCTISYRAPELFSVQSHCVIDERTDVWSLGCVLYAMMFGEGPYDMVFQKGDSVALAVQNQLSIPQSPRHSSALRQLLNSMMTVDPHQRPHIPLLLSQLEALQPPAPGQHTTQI

In the case of Cc1cc(NC(=O)c2cccc(NC(=O)/C=C/CN(C)C)c2)ccc1Nc1nccc(-c2cccnc2)n1, the residual activity ([1]; compound 0.1 µM) is reported as 105%, the residual activity ([1]; compound 1.0 µM) is reported as 98% and the residual activity ([2]; compound 0.1 µM) is reported as 92%. It also gave a residual activity ([2]; compound 1.0 µM) of 93%, a residual activity ([3]; compound 0.1 µM) of 103% and a residual activity ([3]; compound 1.0 µM) of 93%. It also gave a residual activity ([4]; compound 0.1 µM) of 102%, a residual activity ([4]; compound 1.0 µM) of 72% and a residual activity ([5]; compound 0.1 µM) of 93%. It also gave a residual activity ([5]; compound 1.0 µM) of 63%, a residual activity ([6]; compound 0.1 µM) of 85% and a residual activity ([6]; compound 1.0 µM) of 80%. It also gave a residual activity ([7]; compound 0.1 µM) of 110%, a residual activity ([7]; compound 1.0 µM) of 101% and a residual activity ([8]; compound 0.1 µM) of 109%. It also gave a residual activity ([8]; compound 1.0 µM) of 87%, a residual activity ([9]; compound 0.1 µM) of 85% and a residual activity ([9]; compound 1.0 µM) of 82%. The residual activity ([10]; compound 0.1 µM) was 100%, the residual activity ([10]; compound 1.0 µM) was 105% and the residual activity ([11]; compound 0.1 µM) was 91%. It also gave a residual activity ([11]; compound 1.0 µM) of 86%, a residual activity ([12]; compound 0.1 µM) of 89% and a residual activity ([12]; compound 1.0 µM) of 93%. For the same molecule, the residual activity ([13]; compound 0.1 µM) was 27%, the residual activity ([13]; compound 1.0 µM) was 67% and the residual activity ([14]; compound 0.1 µM) was 96%. It also gave a residual activity ([14]; compound 1.0 µM) of 91%, a residual activity ([15]; compound 0.1 µM) of 88% and a residual activity ([15]; compound 1.0 µM) of 79%. It also gave a residual activity ([16]; compound 0.1 µM) of 28%, a residual activity ([16]; compound 1.0 µM) of 69% and a residual activity ([17]; compound 0.1 µM) of 99%. The residual activity ([17]; compound 1.0 µM) was 90%, the residual activity ([18]; compound 0.1 µM) was 97% and the residual activity ([18]; compound 1.0 µM) was 86%. For the same molecule, the residual activity ([19]; compound 0.1 µM) was 106%, the residual activity ([19]; compound 1.0 µM) was 97% and the residual activity ([20]; compound 0.1 µM) was 92%. It also gave a residual activity ([20]; compound 1.0 µM) of 83%, a residual activity ([21]; compound 0.1 µM) of 92% and a residual activity ([21]; compound 1.0 µM) of 91%. For the same molecule, the residual activity ([22]; compound 1.0 µM) was 75%, the residual activity ([23]; compound 0.1 µM) was 99% and the residual activity ([23]; compound 1.0 µM) was 100%. The residual activity ([24]; compound 0.1 µM) was 105%.

C=C1C(=O)OC2C1CC/C(C)=C/CCC1(C)OC21 (centres undefined) showed a residual activity ([1]; compound 1.0 µM) of 99%, a residual activity ([1]; compound 5.0 µM) of 80% and a residual activity ([2]; compound 1.0 µM) of 123%. For the same molecule, the residual activity ([2]; compound 5.0 µM) was 98%, the residual activity [25] was 109% and the residual activity ([3]; compound 1.0 µM) was 111%. It also gave a residual activity ([3]; compound 5.0 µM) of 123%, a residual activity ([26]; compound 1.0 µM) of 116% and a residual activity ([26]; compound 5.0 µM) of 97%. The residual activity ([4]; compound 1.0 µM) was 102%, the residual activity ([4]; compound 5.0 µM) was 121% and the residual activity ([5]; compound 1.0 µM) was 96%. It also gave a residual activity ([5]; compound 5.0 µM) of 102%, a residual activity ([6]; compound 1.0 µM) of 119% and a residual activity ([6]; compound 5.0 µM) of 101%. The residual activity ([7]; compound 1.0 µM) was 121%, the residual activity ([7]; compound 5.0 µM) was 106% and the residual activity ([8]; compound 1.0 µM) was 124%. For the same molecule, the residual activity ([8]; compound 5.0 µM) was 101%, the residual activity ([9]; compound 1.0 µM) was 101% and the residual activity ([9]; compound 5.0 µM) was 88%. It also gave a residual activity ([10]; compound 1.0 µM) of 108%, a residual activity ([10]; compound 5.0 µM) of 93% and a residual activity ([27]; compound 1.0 µM) of 95%. The residual activity ([27]; compound 5.0 µM) was 88%, the residual activity ([11]; compound 1.0 µM) was 103% and the residual activity ([11]; compound 5.0 µM) was 93%. The residual activity ([12]; compound 1.0 µM) was 106%, the residual activity ([12]; compound 5.0 µM) was 112% and the residual activity ([13]; compound 1.0 µM) was 104%. It also gave a residual activity ([13]; compound 5.0 µM) of 110%, a residual activity ([14]; compound 1.0 µM) of 115% and a residual activity ([15]; compound 1.0 µM) of 110%. It also gave a residual activity ([15]; compound 5.0 µM) of 104%, a residual activity ([16]; compound 1.0 µM) of 96% and a residual activity ([16]; compound 5.0 µM) of 121%. For the same molecule, the residual activity ([17]; compound 1.0 µM) was 117%, the residual activity ([17]; compound 5.0 µM) was 102% and the residual activity ([28]; compound 1.0 µM) was 112%. For the same molecule, the residual activity ([28]; compound 5.0 µM) was 100%, the residual activity ([29]; compound 1.0 µM) was 111% and the residual activity ([29]; compound 5.0 µM) was 107%. It also gave a residual activity ([18]; compound 1.0 µM) of 119%, a residual activity ([18]; compound 5.0 µM) of 110% and a residual activity ([19]; compound 1.0 µM) of 105%. The residual activity ([19]; compound 5.0 µM) was 107%, the residual activity ([20]; compound 1.0 µM) was 110% and the residual activity ([20]; compound 5.0 µM) was 103%. The residual activity ([21]; compound 1.0 µM) was 120%, the residual activity ([21]; compound 5.0 µM) was 121% and the residual activity ([22]; compound 1.0 µM) was 107%. It also gave a residual activity ([22]; compound 5.0 µM) of 120%, a residual activity ([23]; compound 1.0 µM) of 108% and a residual activity ([23]; compound 5.0 µM) of 115%. The residual activity ([24]; compound 1.0 µM) was 99%, the residual activity ([24]; compound 5.0 µM) was 104% and the residual activity ([30]; compound 1.0 µM) was 125%. The residual activity ([30]; compound 5.0 µM) was 100%.

Reference: the kinase profiling compilation of Christmann-Franck et al. (2016)
